These results are taken from patent US10686136B2, “Hole transporting material, OLED display panel and electronic device comprising the same” (SHANGHAI TIANMA AM-OLED CO., LTD., priority 2016, dated 2020).

≈ marks a conversion by molar mass, not a printed value.

Series [1] can be described thus: Hole mobility rate of the hole transporting material. Type of series: physicochemical. The note with it: hole transporting layer material.
Series [2] is described as follows: Solubility in NMP. Type of series: physicochemical. To be noted: NMP solvent.
For series [3] the following is noted: cited from earlier work.
For series [4] the following is noted: prior art material of CN103108859; cited from earlier work.
[5] abbreviates: commercially available hole transporting layer material.

On to `c1ccc(-c2ccc(N(c3ccc(-c4ccccc4)cc3)c3ccc(N(c4ccc(-c5ccccc5)cc4)c4ccc(-c5ccccc5)cc4)cc3)cc2)cc1` [Com. Example 4], for which, in series [1], the hole mobility rate is 2×10^−4 cm^2/V·S. As to `Cc1ccc(-c2ccc(N(c3ccc(-c4ccccc4)cc3)c3ccc(-c4ccc(N(c5ccc(-c6ccccc6)cc5)c5ccc(-c6ccc(C)cc6)cc5)cc4)cc3)cc2)cc1` [Com. Example 2], in series [1], the hole mobility rate is reported as 3.5×10^−4 cm^2/V·S. Moreover, the “solubility in NMP” value in series [2] was 2200 µg/mL (≈ 2.68 mM). `Cc1cc(N(c2ccc(-c3ccccc3)cc2)c2ccc(-c3cccc4c3CCCC4)cc2)ccc1-c1ccc(N(c2ccc(-c3ccccc3)cc2)c2ccc(-c3cccc4c3CCCC4)cc2)cc1` [Example 3]: in series [1], the hole mobility rate was 1.8×10^−4 cm^2/V·S. Take `CC1(C)c2ccccc2-c2ccc(N(c3ccc4c(c3)C3(c5ccccc5-c5ccccc53)c3ccccc3-4)c3ccccc3-c3ccccc3)cc21`: the mobility rate entry in series [3] (prior art material of CN103108859) is recorded as “higher”. Further, the solubility entry in series [4] was “good”.

As to `Cc1ccc(-c2ccc(N(c3ccc(-c4ccccc4)cc3)c3ccc(-c4ccc(N(c5ccc(-c6ccccc6)cc5)c5ccc(-c6ccc(C)cc6)cc5)c5c4CCCC5)cc3)cc2)cc1` [Example 1], in series [1], the hole mobility rate was 0.00041 cm²/(V·s). Also, the “solubility in NMP” value in series [2] worked out at 10000 µg/mL (≈ 11.4 mM). For `c1ccc(-c2ccc(N(c3ccc(-c4ccccc4)cc3)c3ccc(-c4ccc(N(c5ccc(-c6ccccc6)cc5)c5ccc(-c6ccccc6)cc5)c5c4CCCC5)cc3)cc2)cc1` [Com. Example 3], the hole mobility rate in series [1] was 7×10^−5 cm^2/V·S. As to `c1ccc(-c2ccc(N(c3ccc(-c4ccccc4)cc3)c3ccc(N(c4ccc(-c5ccccc5)cc4)c4ccc(-c5ccccc5)cc4)cc3)cc2)cc1` [drawing 1], in series [3] (setting [5]), the lateral mobility rate result was “not very high” and the longitudinal mobility rate result is reported as “higher”. As for `c1ccc(-c2ccc(N(c3ccc(-c4ccccc4)cc3)c3ccc(-c4ccc(N(c5ccc(-c6ccccc6)cc5)c5ccc(-c6ccccc6)cc5)cc4)cc3)cc2)cc1` [Com. Example 1], in series [1], the hole mobility rate is on record as 3×10^−4 cm^2/V·S. For `Cc1cccc(-c2ccc(N(c3ccc(-c4cccc5c4CCCC5)cc3)c3ccc(-c4ccc(N(c5ccc(-c6cccc(C)c6)cc5)c5ccc(-c6cccc7c6CCCC7)cc5)c5c4CCCC5)cc3)cc2)c1` [Example 2], the hole mobility rate in series [1] is on record as 2.1×10^−4 cm^2/V·S. Same read-out and setting: to `Cc1ccccc1-c1ccc(N(c2ccc(-c3ccccc3)cc2)c2ccc(-c3ccc(N(c4ccc(-c5ccccc5)cc4)c4ccc(-c5ccccc5C)c5c4CCCC5)c4c3CCCC4)cc2)c2c1CCCC2` [Example 4] belongs 1.9×10^−4 cm^2/V·S.
